Experimental data: patent US6680304B2, “Disaccharides with anti-arthrosic properties” (Bioiberica, S.A., priority 2000, dated 2004)
Counter-ions that a name gives are not always drawn.

Legend:
aggrecan = assay: Aggrecan accumulation in cell-associated matrix of IL-1-treated chondrocytes in alginate gel, flow cytometry; type: cell-based, human; conditions: for AGGR (aggrecan): 7 days, average of three measures; for change in accumulation of aggrecan in the CAM: IL-1+ chondrocytes, treated compared to untreated
Protocol: (§1) Each of the compounds (Ib, IC) has been tested on human articular cartilage chondrocytes obtained from 2 different donors. The chondrocytes were cultured over 7 days in alginate gel and during this period they were exposed to the different drugs. The cells were then isolated from the gel and tested. The test protocol specified that the chondrocytes were exposed to IL-1 since it has been shown that particularly IL-1-treated chondrocytes, as opposed to non-treated chondrocytes, respond to polysulphated polysaccharides. As a positive control, chondroitin sulphate (CS) and chondroitin polysulphate (CPS) have been used.
(§2) The accumulation of aggrecan and of type II collagen in the cell-associated matrix (CAM) of the chondrocytes in culture was the primary variable to evaluate the DMOAD (Disease Modifying Osteoarthritic Drug) effects of the 2 compounds. The intracellular levels of IL-1α and β, MMP-13 were also studied.
(§3) All assays were made by flow cytometry. Specific Fluoresceine Isothiocyanate- (FITC-) or Phycoerythin (PE-) conjugated monoclonal antibodies (Mab) against the different proteins have been used. The results were expressed as Mean Fluorescence Intensity (MFI) of the chondrocyte population after staining with the respective Mab.

type II collagen = assay: Type II collagen accumulation in cell-associated matrix of IL-1-treated chondrocytes in alginate gel, flow cytometry; type: cell-based, human; conditions: for COLL (type II collagen): 7 days, average of three measures; for change in accumulation of type II collagen in the CAM: IL-1+ chondrocytes, treated compared to untreated
Protocol: as §1, §2, §3

IL-1α = assay: Intracellular IL-1α level in IL-1-treated chondrocytes, flow cytometry; type: cell-based, human; conditions: for IL-1α / IL-Iα: 7 days, average of three measures; for change in levels of IL-1α: IL-1+ chondrocytes, treated compared to untreated
Protocol: as §1, §2, §3

IL-1β = assay: Intracellular IL-1β level in IL-1-treated chondrocytes, flow cytometry; type: cell-based, human; conditions: for IL-1β: 7 days, average of three measures; for change in levels of IL-1β: IL-1+ chondrocytes, treated compared to untreated
Protocol: as §1, §2, §3

MMP-13 = assay: Intracellular MMP-13 level in IL-1-treated chondrocytes, flow cytometry; type: cell-based, human; conditions: for MMP-13: 7 days, average of three measures; for change in levels of MMP-13: IL-1+ chondrocytes, treated compared to untreated
Protocol: as §1, §2, §3

[1] = test system: human articular chondrocytes; assay: Overall DMOAD (cartilage structure modifying) effect on cultured chondrocytes; type: cell-based; conditions: effects comparable to those of CS and CPS
Protocol: as §1, §2, §3

[2] = Table 1, donor F53 + IL-1β, 25 μ/ml
[3] = Table 2, donor F53 + IL-1β, 25 μg/ml
[4] = Table 1, donor F53 + IL-1β, 10 μ/ml
[5] = Table 2, donor F53 + IL-1β, 10 μg/ml

Molecule | overall conclusion on effect on cartilage [1] | change in accumulation of aggrecan in the CAM (aggrecan) | AGGR (aggrecan) (aggrecan; [4]) [MFI] | AGGR (aggrecan) (aggrecan; [5]) [MFI] | AGGR (aggrecan) (aggrecan; donor F16 + IL-1β, 10 μ/ml) [MFI] | AGGR (aggrecan) (aggrecan; donor F73 + IL-1β, 10 μg/ml) [MFI] | change in accumulation of type II collagen in the CAM (type II collagen) | COLL (type II collagen) (type II collagen; [4]) [MFI] | COLL (type II collagen) (type II collagen; [5]) [MFI] | COLL (type II collagen) (type II collagen; donor F16 + IL-1β, 10 μ/ml) [MFI] | COLL (type II collagen) (type II collagen; donor F73 + IL-1β, 10 μg/ml) [MFI] | change in levels of IL-1α (IL-1α) | IL-1α (IL-1α; [4]) [MFI] | IL-Iα (IL-1α; [5]) [MFI] | IL-1α (IL-1α; donor F16 + IL-1β, 10 μ/ml) [MFI] | IL-Iα (IL-1α; donor F73 + IL-1β, 10 μg/ml) [MFI] | change in levels of IL-1β (IL-1β) | IL-1β (IL-1β; [4]) [MFI] | IL-1β (IL-1β; [5]) [MFI] | IL-1β (IL-1β; donor F16 + IL-1β, 10 μ/ml) [MFI] | further results
CO[C@H]1O[C@H](COS(=O)(=O)[O-])[C@@H](O)[C@H](O[C@@H]2O[C@H](C(=O)[O-])[C@@H](O)[C@H](O)[C@H]2O)[C@H]1NC(C)=O.[Na+].[Na+] [Ib, Methyl 2-acetamido-2-deoxy-3-O-(β-D-glucopyranosyluronic acid)-6-O-sulfo-α-D-glucopyranoside, disodium salt] | cartilage structure modifying effects | – | – | – | – | – | – | – | – | – | – | – | – | – | – | – | – | – | – | – | AGGR (aggrecan) (aggrecan; [2]): 14.41 MFI; AGGR (aggrecan) (aggrecan; donor F16 + IL-1β, 25 μ/ml): 48.77 MFI; COLL (type II collagen) (type II collagen; [2]): 1.00 MFI; COLL (type II collagen) (type II collagen; donor F16 + IL-1β, 25 μ/ml): 2.92 MFI; IL-1α (IL-1α; [2]): 44.24 MFI; IL-1α (IL-1α; donor F16 + IL-1β, 25 μ/ml): 19.83 MFI; IL-1β (IL-1β; [2]): 2.92 MFI; IL-1β (IL-1β; donor F16 + IL-1β, 25 μ/ml): 1.03 MFI; MMP-13 (MMP-13; [2]): 17.67 MFI; MMP-13 (MMP-13; donor F16 + IL-1β, 25 μ/ml): 22.49 MFI
CO[C@H]1O[C@H](COS(=O)(=O)O)[C@@H](OS(=O)(=O)O)[C@H](O[C@@H]2O[C@H](C(=O)O)[C@@H](O)[C@H](O)[C@H]2O)[C@H]1NC(C)=O [Ic, Methyl 2-acetamido-2-deoxy-3-O-(β-D-glucopyranosyluronic acid)-4,6-di-O-sulfo-α-D-glucopyranoside, trisodium salt] | cartilage structure modifying effects | – | – | – | – | – | – | – | – | – | – | – | – | – | – | – | – | – | – | – | AGGR (aggrecan) (aggrecan; [3]): 18.42 MFI; AGGR (aggrecan) (aggrecan; donor F73 + IL-1β, 25 μg/ml): 59.82 MFI; COLL (type II collagen) (type II collagen; [3]): 0.97 MFI; COLL (type II collagen) (type II collagen; donor F73 + IL-1β, 25 μg/ml): 2.45 MFI; IL-Iα (IL-1α; [3]): 44.69 MFI; IL-Iα (IL-1α; donor F73 + IL-1β, 25 μg/ml): 14.92 MFI; IL-1β (IL-1β; [3]): 3.63 MFI; IL-1β (IL-1β; donor F73 + IL-1β, 25 μg/ml): 0.45 MFI; MMP-13 (MMP-13; [3]): 19.62 MFI; MMP-13 (MMP-13; donor F73 + IL-1β, 25 μg/ml): 18.92 MFI
chondroitin polysulphate [CPS] | – | statistically significant increase | 19.47 | 19.47 | 46.41 | 24.71 | statistically significant increase | 2.12 | 2.12 | 2.31 | 1.96 | statistically significant decrease | 43.84 | 43.84 | 16.94 | 16.43 | statistically significant decrease | 2.68 | 2.68 | 1.18 | IL-1β (IL-1β; donor F73 + IL-1β, 10 μg/ml): 0.45 MFI; change in levels of MMP-13 (MMP-13): statistically significant decrease; MMP-13 (MMP-13; [4]): 11.82 MFI; MMP-13 (MMP-13; [5]): 11.82 MFI; MMP-13 (MMP-13; donor F16 + IL-1β, 10 μ/ml): 23.20 MFI; MMP-13 (MMP-13; donor F73 + IL-1β, 10 μg/ml): 22.11 MFI
chondroitin sulphate [CS] | – | statistically significant increase | 15.09 | 15.09 | 47.39 | 28.72 | statistically significant increase | 1.23 | 1.23 | 2.97 | 1.45 | statistically significant decrease | 45.41 | 45.41 | 17.09 | 17.49 | statistically significant decrease | 3.06 | 3.06 | 1.17 | IL-1β (IL-1β; donor F73 + IL-1β, 10 μg/ml): 0.47 MFI; change in levels of MMP-13 (MMP-13): statistically significant decrease; MMP-13 (MMP-13; [4]): 14.70 MFI; MMP-13 (MMP-13; [5]): 14.70 MFI; MMP-13 (MMP-13; donor F16 + IL-1β, 10 μ/ml): 23.34 MFI; MMP-13 (MMP-13; donor F73 + IL-1β, 10 μg/ml): 21.12 MFI
